In patent US9334272B2, “Derivatives of purinic and pyrimidinic antiviral agents and use thereof as potent anticancer agents” (Ramot at Tel-Aviv University Ltd., priority 2007, dated 2016):

Key:
U-251 cells [1] = test: Reactive oxygen species by DCF-DA FACS, U-251 cells; type: cell-based, human; settings: 2 hour treatment
Procedure: ROS levels were determined by FACS analysis of U-251 cells treated with dichlorodihydrofluorescein diacetate (DCF-DA), which becomes fluorescent when oxidized.

U-251 cells [2] = test: Hoechst viability assay, U-251 glioma cells; type: cell-based, human; settings: 72 hours, Hoechst
Procedure: (§1) Cells (in quadruplicate) at the specified density were suspended in 200 μL medium supplemented with 10% FCS seeded in 96-well plates for 24 hours, then exposed to the drugs for 72 hours. The viability of the cells was determined by Hoechst fluorescent assay as described by Nudelman et al., 2005. Leukemic cell viability after 72 hours of treatment was determined by an MTT (3-(4,5-dimethylthiazol-2-yl)-2,5-diphenyltetrazolium bromide) assay as described by Levovich et al., 2007.
(§2) IC50 values were determined by linear regression of the percentage of survival following drug titration.

acetylated histone H4 = test: Histone H4 acetylation Western blot, U-251 cells; type: cell-based, human; settings: 2-4 hours of treatment
Procedure: For the determination of in vitro histone acetylation, 2.5-3×10^6 cells, seeded in 100 mm culture dishes, were supplemented with RPMI medium containing 10% heat inactivated FCS and were treated with the drugs the following day. At the specified times post-treatment, the cells were removed with a rubber policeman, centrifuged, washed, lysed with lysis buffer (PBS, Nonidet® NP-40 1%, sodium deoxycholate 0.5%, sodium dodecyl sulfate (SDS) 0.1%, 1 mM phenylmethylsulfonyl fluoride (PMSF), 1 mM sodium orthovanadate, and 1 μM each of leupeptin and pepstatin) and centrifuged at 10,000 g for 10 minutes at 4° C. […] The extract was then lyophilized, and protein concentration was determined with a BCA kit (Pierce, USA). […] The fold increase of acetylated histones was determined by the ratio of band intensities of treated and untreated cells or mice, normalized to loading control (total histone H3).
Cell lysates or acid extracted histones were solubilized in a concentrated (×4) loading buffer (62.5 mM Tris-HCl, pH 6.8, 1% SDS, 10% glycerol v/v, 1% dithiothreitol (DTT) and 0.1 mg/ml bromophenol blue). […] The membrane was exposed for 5 minutes to Chemiluminescence BioMax light film (Kodak, USA) and the intensity of the bands was measured with a VersaDoc instrument with a Quantityl program (Bio-Rad, USA). […]

U-251 cells [3] = test: Mitochondrial membrane potential (JC-1 staining), U-251 cells; type: cell-based, human; settings: 60 μM, 24 hour treatment
[4] = test system: kinases which phosphorylate acyclovir; test: Acyclovir phosphorylation (viral thymidine kinase activity) in 4T1 cell extracts; type: cell-based, murine; settings: 4T1 cells, 24 hours, 40 μM
Procedure: The mammalian thymidine kinase (TK) has a narrow specificity and acts only on thymidine. […] The lysates obtained were kept at −70 ° C. until analyzed either spectroscopically or by RT-PCR. […] The ADP is converted to ATP by pyruvate kinase when it hydrolyzes phosphoenolpyruvate (PEP) to pyruvate. Lactate dehydrogenase then converts pyruvate to lactate and NADH to NAD^+. The decrease in fluorescence emitted by NADH (excitation/emission of 320/460 nm) during 10 cycles, each lasting 1 minute, were monitored using a FluoStar fluorometer. The reaction velocity was determined by the slope of the fluorescence vs. time.

U-251 cells [5] = test: Apoptosis/cell death by annexin V-FITC and propidium iodide FACS, U-251 cells; type: cell-based; settings: Homo sapiens; U-251 glioblastoma cells, 50 μM, 24 hours (untreated 9%)
Procedure: Cells were seeded in six-well plates (10^5 cells/well) for 24 hours and were then treated as specified, trypsinized, washed with PBS, double-stained with annexin V-FITC (fluorescein isothiocyanate) and propidium iodide, according to the manufacturer's instructions and subjected to flow cytometry analysis (FACScalibur cytometer, Becton Dickinson).

22RV1 cells = test: Hoechst viability assay, 22RV1 prostate carcinoma cells; type: cell-based, human; settings: 72 hours, Hoechst
Procedure: as §1, §2

U-251 cells [6] = test: Cell cycle analysis (propidium iodide flow cytometry), U-251 cells; type: cell-based, human; settings: 24 hours
Procedure: Cells (4×10^5) were seeded in 35 mm culture dishes and after 24 hours were starved in medium without serum for an additional 24 hours, and then treated with the drug for an additional 24 hours. The cells were then trypsinized to a single cell suspension in PBS, washed, and resuspended in PBS at a concentration of 10^6 cells/mL. The cells were fixed with 70% ethanol for 30 minutes at 4° C., centrifuged and resuspended in 1 ml PBS containing 0.1% Tween 20 and 0.05% bovine serum albumin (BSA). RNase free of DNase was added, and the cell suspension (10^6 cells) was incubated at […] for 30 minutes. The cell suspension was then chilled on ice to a temperature in the range of 2 to 8° C. Propidium iodide (50 μg/mL) was added to the cell suspension, which was than kept in the dark. Red fluorescence (>630 nm) was analyzed on the flow cytometer.

herpes virus = settings: Brigden & Whiteman, 1983; cited from earlier work
proteasome = target: T1, proteasome (Homo sapiens, UniProt P28074); test: Proteasome activity assay, U-251 cells; type: cell-based; settings: 4 or 24 hours, alone or in combination
T1 construct: proteasome activity in U-251 cells treated for 4 or 24 hours; endogenous in cells; host or cells: U-251 cells (lysates of treated cells)
T1 sequence (P28074 60-263): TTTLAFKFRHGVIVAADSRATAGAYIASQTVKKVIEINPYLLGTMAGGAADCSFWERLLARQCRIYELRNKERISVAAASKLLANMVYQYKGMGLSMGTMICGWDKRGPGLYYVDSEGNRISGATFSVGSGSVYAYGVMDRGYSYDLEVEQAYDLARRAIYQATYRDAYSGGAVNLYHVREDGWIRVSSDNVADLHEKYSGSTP
Procedure: The peptidase or chymotrypsin-like activity of the proteasome was assayed using N-succinyl-Leu-Leu-Val-Tyr-7-amido-4-methylcoumarin. The lysates (100 μL) were incubated with 13 (M of the substrate in 100 mM Tris, pH 7.5, for 1 hour with shaking at room temperature. The reaction was stopped by addition of ice-cold ethanol, and the samples were centrifuged for 5 minutes at 2500 g. The supernatants were collected and the fluorescence was measured with excitation/emission filters of 390/460 nm using the FluoStar fluorimeter. The protein concentration was determined using a BCATM kit (Pierce) and the proteasome activity was derived from the ratio of fluorescence at 460 nm/(g of protein. The percentage of proteasome activity was calculated relative to untreated cells.

Nc1nc2c(ncn2COCCO)c(=O)[nH]1 [acyclovir, reference compound]
level of oxidation in cells (ROS) (U-251 cells [1]): little if any effect
IC50 (U-251 cells [2]): could not be reached
acetylation of histone H4 (acetylated histone H4): did not
mitochondrial membrane potential (U-251 cells [3]): no apparent effect
rate of acyclovir phosphorylation (kinase activity) [4]: no effect on the kinase activity
mortality at 50 µM (U-251 cells [5]): 11%
IC50 (22RV1 cells): could not be reached
phase of cell-cycle arrest (U-251 cells [6]; 1 mM): S phase
Percentage of cells in G0-G1 stage (U-251 cells [6]; 1000 μM): 14.1%
Percentage of cells in G2-M stage (U-251 cells [6]; 1000 μM): 12.2%
Percentage of cells in S stage (U-251 cells [6]; 1000 μM): 73.6%
inhibition of herpes virus replication at concentrations lower than those inhibiting mammalian cellular functions (herpes virus): 300-3000 fold
inhibitory effect on proteasome activity (proteasome): only a marginal inhibitory effect
